Test results taken from US6896914B2, “Method for normalizing insulin levels” (priority 2001, dated 2005).

Legend:
obese patients = conditions: cited from earlier work
[1] = test system: overweight male human subjects; experiment: Example 1: double-blind study of enteric coated oral d-mannoheptulose with 1-glutamic acid, serum insulin, glucose and C-peptide; type: in vivo
Method: A six-week double-blind study would also determine if combining an amino acid (i.e., 1-glutamic acid) and enteric coating would enhance the bioavailability and efficacy of oral d-mannoheptulose and prevent diarrhea. The amount of amino acid used was 500 mg per dose.
Thirteen healthy male human subjects, aged thirty-seven to fifty-seven, each at least forty pounds overweight, underwent screening blood testing. The Automated Chemistry Profile used included the following measurements: Serum Glucose, BUN, Creatinine, BUN/Creatinine Ratio, Uric Acid, Sodium, Potassium, Chloride, Carbon Dioxide, Calcium, Phosphorous, Total Protein, Albumin, Globulin, A/G Ratio, Total Bilirubin, Alkaline Phosphatase, LDH, AST, ALT, and Iron. A Lipid Profile, and CBC with Differential were also measured. Tests specific to this study included C-Peptide, Serum Insulin, and Hemoglobin A1c.
Subjects were randomly placed into two groups: “A” (Purple Caps) and “B” (Green Caps). Neither subject nor investigator knew which dosage forms were active and which were placebo. Once a week for three weeks, all subjects came to a local medical office while fasting and, stayed for a period of at least four hours. Blood was drawn from each subject in the fasting state, immediately following a high sugar meal, and at one and three hours after taking 500 mg. of MH. Additionally, fasting blood levels of glucose and insulin were drawn two times a week.
The intent was to cross over the patient test groups at the end of three weeks. But, the response of the group receiving active substance was so obvious that any attempt to continue the double-blind methodology in secrecy was pointless. The active compound group not only stabilized their eating patterns, but also experienced considerable weight loss.
At the end of the third week, the code was broken, confirming that the subjects with the dramatic response were getting the active oral dosage form. Thereafter, all subjects were given the same active dosage form.

[2] = test system: overweight hyperinsulinemic male and female subjects; experiment: Example 2: placebo-controlled crossover study of enteric coated d-manno-heptulose capsules, insulin, glucose, weight; type: in vivo, human
Method: All study subjects had serum insulin, blood glucose, and C-peptide levels drawn. The relationship of insulin to glucose was determined by the following formula: Glucose (mg %)×0.41−34=Insulin Thus: 83 mg % glucose×0.41=34.03−34=0.03 or, insulin vanishes from the blood at 83 mg %. Subjects were male and females under the age of 50, who were at least 45 pounds overweight according to the body mass index (BMI). […] Sixteen subjects were given 500 mg of d-manno-heptulose (MH) in enteric coated capsules. Sixteen subjects were given placebo in similar appearing capsules. All subjects received doses four times a day, which were orally ingested in the presence of the investigator. Insulin and glucose levels were drawn one hour after ingesting capsules, two hours afterwards, and four hours afterwards. C-peptide levels were measured once a day. Patients were asked to keep meal logs, recording everything that they ingested by mouth, on a daily basis, for the duration of the study. The subjects and investigators were both blind to the group receiving active medication. At the end of three weeks, the test groups were switched. The group receiving active dosage forms was switched with the group receiving placebo. The initial time period was designed to be three weeks. However, four patients dropped out because they found the schedule too demanding. Nine of the control group patients expressed a desire to quit, and four were allowed to withdraw. The remaining twenty-four subjects completed the six week period.

Hexokinase = conditions: cited from earlier work
mammals including man = conditions: cited from earlier work
[3] = twelve active medication subjects, first three weeks

SMILES: CC1=NS(=O)(=O)c2cc(Cl)ccc2N1 [diazoxide]
- effect on blood pressure (obese patients): drops blood pressure dangerously
- effect on insulin levels (obese patients): lowers insulin levels

SMILES: O=C(CO)[C@@H](O)[C@@H](O)[C@H](O)[C@H](O)CO [MH, d-mannoheptulose]
- weight loss and carbohydrate craving reported by participants ([1]; all study participants): significant weight-loss and reduction in carbohydrate craving
- average fasting serum insulin lower than baseline ([1]; end of study vs baseline at beginning of study): 26.41%
- average reduction in C-peptide levels ([1]; end of study vs baseline, two subjects): 43%
- fasting serum glucose higher than baseline ([1]; end of study vs baseline, called insignificant): 1.52%
- lowering elevated serum insulin ([1]; enterically coated MH): effective short-term and long-term
- nausea or diarrhea ([1]; enterically coated MH): not one instance of nausea or diarrhea was reported
- indications of toxicity ([1]; hematological or symptomatic, any subject): no hematological or symptomatic indications of toxicity
- glycemic state of participant hypoglycemic at entry ([1]; one study participant): became normalglycemic
- serum insulin lower than baseline fasting insulin ([1]; three hours after one dose of MH, same-day glucose challenge, average): 22.4%
- average glucose increase ([1]; three hours after one dose of MH, same-day glucose challenge, called insignificant): 1.92%
- Fasting insulin ([2]; after active medication for three days, all subjects of A group): 0
- time to begin lowering plasma insulin levels ([2]; after administration): two
- tolerance for high-sugar foods ([2]; all MH recipients while on medication): diminished tolerance for high-sugar foods
- Fasting insulin ([2]; control group changed from placebo to MH, middle of second day, after six doses): 0
- average per day weight loss ([2]; control group changed from placebo to MH, over twenty-one days): 2.2 lbs.
- average weight loss after switch to placebo ([2]; original twelve active patients): 0.7 lbs. per day
- duration of insulin suppressing action after switch to placebo ([2]; original twelve active patients, on average): eleven
- Average weight loss [2, 3]: 1.6 lbs. per day per subject
- greatest weight loss [2, 3]: 1.9 lbs. per day
- lowest weight loss [2, 3]: 1.2 lbs. per day
- average decrease of insulin levels ([2]; two hours after administration of MH, A group, twelve subjects): 81%
- inhibition of hexokinase (Hexokinase): inhibits hexokinase in a predominantly competitive manner
- effect on insulin release (mammals including man; mammals including man): lower fasting and glucose stimulated peak insulin release
- absorption on oral administration (mammals including man; oral): poor absorption on oral administration
- side effects on oral administration (mammals including man; oral): unpleasant side effects (e.g., diarrhea, nausea)
